From ChEMBL document CHEMBL1148999, “Antimalarial agents, 2. Artesunate, an inhibitor of cytochrome oxidase activity in Plasmodium berghei” (J Nat Prod, 1986)
Active and inactive are the calls of the source. The calls are words filed in the database; no cut-off is given here.

Assays:
[1] = test system: Plasmodium berghei; assay: Inhibition of Plasmodium berghei trophozoite cytochrome oxidase at 100 nM after 30 min by osmium black staining
[2] = test system: Plasmodium berghei; assay: Inhibition of cytochrome oxidase in intraerythrocytic trophozoite of Plasmodium berghei infected CF1 mice (Mus musculus) at 100 mg/kg intravenous dose; type: functional, organism-based; design: dose 100 mg/kg
[3] = test system: Plasmodium berghei; assay: Inhibition of Plasmodium berghei trophozoite cytochrome oxidase at 1 mM after 30 min by osmium black staining
[4] = test system: Plasmodium berghei; assay: Inhibition of Plasmodium berghei trophozoite cytochrome oxidase after 30 min by osmium black staining

- Activity [1]: inactive
- Activity [3]: Active
- Activity [4]: Dose-dependent effect
Compound: C[C@H]1[C@H](OC(=O)CCC(=O)O)O[C@@H]2O[C@@]3(C)CC[C@H]4[C@H](C)CC[C@@H]1[C@@]24OO3
- Activity [2]: Active
